The results in this text go back to US11420958B2, “Aryl and heteroaryl substituted indole compounds” (BRISTOL-MYERS SQUIBB COMPANY, priority 2017, dated 2022).

Assay type in all cases: cell-based
In one assay the target is human TLR7 (Homo sapiens (Human), UniProt Q9NYK1). The assay is described as follows: TLR7 inhibition reporter assay (HEK-Blue, SEAP). Particulars: HEK-Blue cells overexpressing human TLR7, gardiquimod 7.5 μM stimulation. On the procedure: (§1) TLR7/8/9 Inhibition Reporter Assays
Sequence of human TLR7 (Q9NYK1 27-1049): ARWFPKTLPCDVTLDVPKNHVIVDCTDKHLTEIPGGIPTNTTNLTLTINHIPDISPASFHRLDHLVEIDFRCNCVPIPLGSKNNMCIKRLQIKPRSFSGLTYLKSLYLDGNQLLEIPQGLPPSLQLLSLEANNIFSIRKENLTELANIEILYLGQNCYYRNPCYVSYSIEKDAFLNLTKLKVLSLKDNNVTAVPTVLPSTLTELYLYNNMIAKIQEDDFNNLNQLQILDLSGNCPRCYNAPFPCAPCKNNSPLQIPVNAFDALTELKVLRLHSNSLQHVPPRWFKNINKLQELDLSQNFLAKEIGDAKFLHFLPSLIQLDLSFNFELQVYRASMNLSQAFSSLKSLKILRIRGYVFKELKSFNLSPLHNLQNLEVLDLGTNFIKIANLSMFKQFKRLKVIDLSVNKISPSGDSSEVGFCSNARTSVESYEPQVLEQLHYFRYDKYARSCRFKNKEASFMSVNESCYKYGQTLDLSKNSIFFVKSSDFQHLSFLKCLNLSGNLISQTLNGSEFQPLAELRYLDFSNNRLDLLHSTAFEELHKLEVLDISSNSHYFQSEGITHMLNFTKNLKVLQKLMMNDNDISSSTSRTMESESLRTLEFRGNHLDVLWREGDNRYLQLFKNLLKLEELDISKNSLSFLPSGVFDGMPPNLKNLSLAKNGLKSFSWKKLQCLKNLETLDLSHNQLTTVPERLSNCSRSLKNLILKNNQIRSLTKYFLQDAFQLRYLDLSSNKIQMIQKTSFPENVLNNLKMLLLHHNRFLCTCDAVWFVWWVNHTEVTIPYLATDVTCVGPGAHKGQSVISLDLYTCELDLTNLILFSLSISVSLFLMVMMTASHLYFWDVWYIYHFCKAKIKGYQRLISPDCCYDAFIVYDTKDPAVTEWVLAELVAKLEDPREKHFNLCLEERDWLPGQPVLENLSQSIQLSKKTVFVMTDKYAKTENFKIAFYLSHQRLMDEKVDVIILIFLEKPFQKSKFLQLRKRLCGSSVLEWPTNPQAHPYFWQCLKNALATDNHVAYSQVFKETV
(§2) HEK-Blue™-cells (Invivogen) overexpressing human TLR7, TLR8 or TLR9 receptors were used for screening inhibitors of these receptors using an inducible SEAP (secreted embryonic alkaline phosphatase) reporter gene under the control of the IFN-β minimal promoter fused to five NF-κc Band AP-1-binding sites. Briefly, cells are seeded into Greiner 384 well plates (15000 cells per well for TLR7, 20,000 for TLR8 and 25,000 for TLR9) and then treated with test compounds in DMSO to yield a final dose response concentration range of 0.05 nM-50 μM. After a 30 minute compound pre-treatment at room temperature, the cells are then stimulated with a TLR7 ligand (gardiquimod at a final concentration of 7.5 μM), TLR8 ligand (R848 at a final concentration of 15.9 μM) or TLR9 ligand (ODN2006 at final concentration of 5 nM) to activate NF-κB and AP-1 which induce the production of SEAP. After a 22 hour incubation at 37° C., 5% CO2, SEAP levels are determined with the addition of HEK-Bue™ Detection reagent (Invivogen), a cell culture medium that allows for detection of SEAP, according to manufacturer's specifications. The percent inhibition is determined as the % reduction in the HEK-Blue signal present in wells treated with agonist plus DMSO alone compared to wells treated with a known inhibitor.

In the next assay the target is human TLR9 (Homo sapiens (Human), UniProt Q9NR96). The assay is described as follows: TLR9 inhibition reporter assay (HEK-Blue, SEAP). The note with it: HEK-Blue cells overexpressing human TLR9, ODN2006 5 nM stimulation. Here is the method:
as §1, §2

The target of a further assay is human TLR8 (Homo sapiens (Human), UniProt Q9NR97). As to the kind of experiment: TLR8 inhibition reporter assay (HEK-Blue, SEAP). Particulars: HEK-Blue cells overexpressing human TLR8, R848 15.9 μM stimulation. Here is the method: as §1, §2
Sequence of human TLR8 (Q9NR97 27-1041): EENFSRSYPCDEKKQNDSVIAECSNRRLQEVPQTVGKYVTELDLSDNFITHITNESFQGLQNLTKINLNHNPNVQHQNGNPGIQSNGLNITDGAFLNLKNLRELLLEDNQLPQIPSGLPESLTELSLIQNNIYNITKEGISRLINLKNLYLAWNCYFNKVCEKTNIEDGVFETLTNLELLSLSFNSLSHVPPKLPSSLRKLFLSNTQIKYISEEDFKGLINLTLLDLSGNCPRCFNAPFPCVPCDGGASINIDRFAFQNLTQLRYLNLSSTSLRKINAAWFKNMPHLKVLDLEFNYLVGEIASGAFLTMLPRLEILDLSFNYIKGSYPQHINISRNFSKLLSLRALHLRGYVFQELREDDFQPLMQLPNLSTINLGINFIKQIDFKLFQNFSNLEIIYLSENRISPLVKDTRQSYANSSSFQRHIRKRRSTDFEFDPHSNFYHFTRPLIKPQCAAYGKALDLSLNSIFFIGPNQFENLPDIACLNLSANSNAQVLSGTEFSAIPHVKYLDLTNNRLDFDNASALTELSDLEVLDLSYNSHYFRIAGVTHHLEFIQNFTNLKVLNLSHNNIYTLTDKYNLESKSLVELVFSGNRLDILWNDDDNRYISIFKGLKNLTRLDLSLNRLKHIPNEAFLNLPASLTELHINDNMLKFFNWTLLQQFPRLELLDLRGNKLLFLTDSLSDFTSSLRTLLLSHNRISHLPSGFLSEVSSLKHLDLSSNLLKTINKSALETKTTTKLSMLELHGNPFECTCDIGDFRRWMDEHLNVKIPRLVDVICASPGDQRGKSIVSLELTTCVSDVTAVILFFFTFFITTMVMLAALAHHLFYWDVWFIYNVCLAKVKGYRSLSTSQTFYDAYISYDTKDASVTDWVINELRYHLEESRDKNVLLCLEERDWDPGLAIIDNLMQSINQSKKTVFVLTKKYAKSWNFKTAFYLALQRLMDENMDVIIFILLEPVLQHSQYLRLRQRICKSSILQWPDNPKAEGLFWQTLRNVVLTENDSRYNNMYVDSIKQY

Sequence of human TLR9 (Q9NR96 26-1032): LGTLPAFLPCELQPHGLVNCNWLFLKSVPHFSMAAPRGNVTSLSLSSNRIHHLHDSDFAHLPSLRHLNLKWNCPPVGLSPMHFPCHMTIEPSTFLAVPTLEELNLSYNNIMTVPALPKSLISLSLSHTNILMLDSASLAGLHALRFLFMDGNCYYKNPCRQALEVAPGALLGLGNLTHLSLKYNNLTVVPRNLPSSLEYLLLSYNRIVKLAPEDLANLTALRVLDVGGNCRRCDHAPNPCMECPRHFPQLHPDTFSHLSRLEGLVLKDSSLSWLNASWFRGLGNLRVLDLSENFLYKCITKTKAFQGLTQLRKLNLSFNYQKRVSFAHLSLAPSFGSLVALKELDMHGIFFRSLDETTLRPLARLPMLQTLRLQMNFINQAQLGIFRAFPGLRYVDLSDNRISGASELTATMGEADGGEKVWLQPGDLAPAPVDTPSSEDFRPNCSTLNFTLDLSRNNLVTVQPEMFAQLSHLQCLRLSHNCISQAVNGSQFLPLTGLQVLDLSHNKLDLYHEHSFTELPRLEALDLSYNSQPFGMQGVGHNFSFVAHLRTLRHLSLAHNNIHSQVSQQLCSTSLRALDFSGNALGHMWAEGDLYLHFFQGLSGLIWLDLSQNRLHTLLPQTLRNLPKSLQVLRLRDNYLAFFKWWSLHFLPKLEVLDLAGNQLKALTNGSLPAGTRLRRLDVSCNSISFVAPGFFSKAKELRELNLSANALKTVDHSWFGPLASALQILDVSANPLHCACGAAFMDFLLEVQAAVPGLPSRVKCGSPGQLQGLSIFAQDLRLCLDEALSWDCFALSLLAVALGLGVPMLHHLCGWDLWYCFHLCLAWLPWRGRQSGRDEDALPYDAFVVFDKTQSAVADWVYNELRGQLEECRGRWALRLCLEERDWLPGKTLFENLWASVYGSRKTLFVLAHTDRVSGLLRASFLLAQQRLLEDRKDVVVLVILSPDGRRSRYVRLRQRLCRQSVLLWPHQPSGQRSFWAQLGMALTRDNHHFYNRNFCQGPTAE

Turning to `COc1ccc(-c2[nH]c3ccc(-c4cccc(C(=O)N5CCC(O)CC5)c4)cc3c2CC(F)(F)F)cc1OC` [Example 31, (3-(2-(3,4-dimethoxyphenyl)-3-(2,2,2-trifluoroethyl)-1H-indol-5-yl)phenyl)(4-hydroxypiperidin-1-yl)methanone], the results for the IC50 against human TLR7, at human TLR9 and against human TLR8 were 895 nM, 25800 nM and 307 nM, respectively.

As to `COc1ccc(-c2[nH]c3ccc(-c4cccc(C(=O)N5CCCC5C)c4)cc3c2CC(F)(F)F)cc1OC` (stereo not drawn) [Example 32, (3-(2-(3,4-dimethoxyphenyl)-3-(2,2,2-trifluoroethyl)-1H-indol-5-yl)phenyl)(2-methylpyrrolidin-1-yl)methanone], the IC50 is 2620 nM against human TLR7, more than 50000 nM on human TLR9 and 1110 nM against human TLR8.

Consider `COc1ccc(-c2[nH]c3ccc(-c4cccc(C(=O)N5CC[C@@H](O)C5)c4)cc3c2CC(F)(F)F)cc1OC` [Example 34, (R)-(3-(2-(3,4-dimethoxyphenyl)-3-(2,2,2-trifluoroethyl)-1H-indol-5-yl)phenyl)(3-hydroxypyrrolidin-1-yl)methanone], for which the IC50 against human TLR7 stood at 776 nM; against human TLR9, 14700 nM; against human TLR8, 199 nM.

For `COc1ccc(-c2[nH]c3ccc(-c4cccc(C(=O)N(C)CCc5ccccn5)c4)cc3c2CC(F)(F)F)cc1OC` [Example 35, 3-(2-(3,4-dimethoxyphenyl)-3-(2,2,2-trifluoroethyl)-1H-indol-5-yl)-N-methyl-N-(2-(pyridin-2-yl)ethyl)benzamide], the IC50 on human TLR7 was 974 nM; against human TLR9 it was more than 50000 nM; at human TLR8, 71 nM.

As to `COc1ccc(-c2[nH]c3ccc(-c4cccc(C(=O)N5CCN(c6ccncc6)CC5)c4)cc3c2CC(F)(F)F)cc1OC` [Example 36, (3-(2-(3,4-dimethoxyphenyl)-3-(2,2,2-trifluoroethyl)-1H-indol-5-yl)phenyl)(4-(pyridin-4-yl)piperazin-1-yl)methanone], the IC50 stood at 287 nM on human TLR7, 1800 nM on human TLR9 and 102 nM against human TLR8.

`COc1ccc(-c2[nH]c3ccc(-c4cccc(C(=O)N5CCN(C6CCN(C)CC6)CC5)c4)cc3c2CC(F)(F)F)cc1OC` [Example 37, (3-(2-(3,4-dimethoxyphenyl)-3-(2,2,2-trifluoroethyl)-1H-indol-5-yl)phenyl)(4-(1-methylpiperidin-4-yl)piperazin-1-yl)methanone]: the IC50 against human TLR7 was 405 nM; at human TLR9, 2320 nM; at human TLR8 it was 139 nM.

Take `CCc1c(-c2ccc(OC)c(OC)c2)[nH]c2ccc(-c3nnc(C(=O)N(C)C)o3)cc12` [Example 38, 5-(2-(3,4-dimethoxyphenyl)-3-ethyl-1H-indol-5-yl)-N,N-dimethyl-1,3,4-oxadiazole-2-carboxamide]: the values for the IC50 on human TLR7, on human TLR9 and against human TLR8 were 1030 nM, more than 50000 nM and 151 nM, respectively.

For the compound `CCc1c(-c2ccc(OC)c(OC)c2)[nH]c2ccc(-c3nnc(C(=O)NC4CCN(C(C)C)CC4)o3)cc12` [Example 39, 5-(2-(3,4-dimethoxyphenyl)-3-ethyl-1H-indol-5-yl)-N-(1-isopropylpiperidin-4-yl)-1,3,4-oxadiazole-2-carboxamide], the results for the IC50 on human TLR7, against human TLR9 and at human TLR8 were 93 nM, 433 nM and 7.9 nM, respectively.

On to `CCc1c(-c2ccc(OC)c(OC)c2)[nH]c2ccc(-c3nnc(C(=O)N4CC5CNCC5C4)o3)cc12` (stereo not drawn) [Example 40, (5-(2-(3,4-dimethoxyphenyl)-3-ethyl-1H-indol-5-yl)-1,3,4-oxadiazol-2-yl)(hexahydropyrrolo[3,4-c]pyrrol-2(1H)-yl)methanone], for which the half-maximal inhibitory concentration (IC50) was 154 nM at human TLR7, 325 nM at human TLR9 and 18 nM against human TLR8.

Consider `CCc1c(-c2ccc(OC)c(OC)c2)[nH]c2ccc(-c3nnc(C(N)=O)o3)cc12` [Example 41, 5-(2-(3,4-dimethoxyphenyl)-3-ethyl-1H-indol-5-yl)-1,3,4-oxadiazole-2-carboxamide], for which the IC50 against human TLR7 was 749 nM; against human TLR9, more than 50000 nM; on human TLR8, 173 nM.
